From article PMC12799219, “In vitro and in vivo studies on the activity and selectivity of butoconazole in experimental infection by Trypanosoma cruzi” (Memórias do Instituto Oswaldo Cruz, 2026)
Read-outs that look alike come from different tables or passages of the source.

Key:
[1] = system: T. cruzi (Y strain) blood trypomastigotes; assay: In vitro activity on bloodstream trypomastigotes; type: cell-based, Trypanosoma cruzi; conditions: for EC90 / EC50: Trypanosoma cruzi
Procedure: In vitro activity on bloodstream trypomastigotes - Swiss male mice were inoculated with 5 x 10^4 bloodstream trypomastigotes (BT, Y strain, DTU II) and at the parasitaemia peak [8th post-infection (dpi)], euthanised using 3% isoflurane and blood samples obtained by cardiac puncture (CEUA FIOCRUZ L038-2017). Then, 100 μL of parasite suspension (10^7/mL in RPMI medium + 5% FBS) was added to the same volume of RPMI + 5% FBS containing treatment with BTZ (serially diluted - 1:2) at twice the desired final concentration. After 2 and 24 h at 37 °C, the number of live parasites was determined by light microscopy quantification using a Neubauer chamber.[6] Untreated controls were carried out with parasites kept under the same conditions and BZ was run in parallel. The activity of the compounds was expressed by the EC50 and EC90 values. The assays were done at least twice, in duplicate.

T. cruzi satDNA = assay: In vivo efficacy by qPCR (T. cruzi satDNA) in blood and heart; set-up: species or system Swiss male mice; conditions: for qPCR on blood samples, parasite DNA amplification: first trial, surviving mice: BZ 25 mg/kg/day, BTZ 45.61 mg/kg/day; for qPCR on blood samples, animals that amplified parasite DNA: second trial, higher doses: BZ 100, BTZ 182.44 mg/kg/day
Procedure: In vivo efficacy assessments by qPCR evaluations - At the end point, the animals were weighed; euthanised and submitted to cardiac puncture. 500 μL of fresh blood was collected and added to 1 mL of guanidine. The DNA was extracted from 300 μL of guanidine-EDTA blood, using the kit High Pure PCR Template Preparation (Roche diagnostics, Mannhein, Germany), according to the manufacturer's instructions. At the last step of the protocol, DNA was eluted in 100 μL of elution buffer. Also, cardiac tissues were collected, weighed and fragmented using a scalpel, 200 μL of Tissue Lysis Buffer was added and samples immediately placed in Styrofoam with dry ice. Blood and heart tissues were stored in the freezer at […] until analysis by qPCR. Heart tissues were homogenised using a Tissue Homogeneizer (Qiagen). DNA was extracted using the kit High Pure PCR Template Preparation (Roche diagnostics, Mannhein, Germany), according to the manufacturer's instructions for tissue samples. qPCR was done using a TaqMan multiplex assay, targeting T. cruzi […] and mouse GAPDH, as an endogenous control, and to normalise the parasite load. To obtain standard curves, serial dilutions of the DNA were prepared in appropriate plates for the assay. After normalising the results obtained on the samples, the parasite load was expressed as parasite equivalents/mL when evaluated in blood, or parasite equivalents/mg when in mouse tissue. In all trials, positive and negative controls were also tested in parallel.

[2] = system: T. cruzi intracellular forms (Tulahuen strain) in L929 cell lines; assay: Drug combination (fixed-ratio, FICI) on intracellular forms of T. cruzi; type: cell-based, Trypanosoma cruzi; set-up: Drug concentration (EC50 in fixed-ratio series): unit not given here
Procedure: Drug combination on intracellular forms of T. cruzi - L929 were seeded in 96-well plates (4 x 10^3 cells/well) and infected with T. cruzi (Tulahuen strain). Predetermined EC50 values were used to determine the top concentrations of the test compounds under fixed ratios ensuring that EC50 fell in the midpoint of a seven-point two-fold dilution series. The fixed ratios were 5:0, 4:1, 3:2, 2:3, 1:4 and 0:5.[24] ^, [25] According to Odds (2003), the Fractional Inhibitory Concentration Indexes (FICI) was calculated by the ratio of the EC50 values of each ratio of the combinations/EC50 of each compound alone. Finally, the sum of the FICIs (ƩFICI) is calculated to classify the interaction nature of the combinations.[26] ΣFICI ≤ 0.5 = Synergism; ΣFICI between 0.5 and 4 = additive (No interaction); ΣFICI > 4 = antagonism. At least two independent experiments were performed in triplicate.

in vitro = type: cell-based; conditions: rat, Toxicity on H9C2 mammalian cells LC50
Procedure: (§1) Mammalian cell cultures - L929 fibroblast lineage were cultured in Roswell Park Memorial Institute 1640 medium without phenol red (RPMI - Sigma-Aldrich, St. Louis, MO, USA), supplemented with 10% foetal bovine serum (FBS - Cultilab - SP - Brazil) and 2 mM glutamine (Sigma-Aldrich, St. Louis, MO, USA) with pH 7.2 - 7.4, as previously reported.[21] H9C2, cardiomyoblast cultures, were maintained in Dulbecco’s Modified Eagle’s Medium (DMEM) high glucose (4500 mg/L) medium supplemented (Sigma-Aldrich, St. Louis, MO, USA) with 10% FBS (Cultilab - SP -Brazil), 2 mM glutamine (Sigma-Aldrich, St. Louis, MO, USA) and 100 μg/mL penicillin/streptomycin (Sigma-Aldrich, St. Louis, MO, USA).[22] Both cell cultures maintained at 37 °C under an atmosphere of 5% CO2, with weekly dissociation protocol using 0.01% trypsin.
(§2) Cytotoxicity assay - The toxicity of the compounds was evaluated on two mammalian cell lines (L929 and H9C2), as reported.[21] The cells were seeded in 96-well plates (4 x 10^3 cells/well - for L929; 25x10^3 cells/well - for H9C2) and incubated at 37 °C and 5% CO2. The L929 cultures were kept under treatment for 96 and 168 h with a serial dilution (1:2) of the compounds (up to 400 μM). After the treatment periods, the AlamarBlue® reagent (Thermo Fisher Scientific Inc) was added and incubated for 24 h. The H9C2 cultures were also treated in serial dilution up to 200 μM for 24 h. PrestoBlue® reagent (Thermo Fisher Scientific Inc) was added to the cultures and incubated for 3 h. All plates were analysed in the spectrophotometer SpectraMaxM3 (570 and 600 nm) and LC50 values (concentration capable of inducing loss of viability in 50% of the cells) determined.[21] All assays were done at least twice, in triplicates.

H9C2 mammalian cells = assay: cells; type: cell-based; conditions: for EC50: Rattus norvegicus, H9c2, 24 h, read-out: Toxicity on H9C2 mammalian cells pEC50 (converted)
Procedure: as §1, §2

[3] = 2 h, read-out: Activity on T. cruzi (Y strain) blood trypomastigotes EC50
[4] = 24 h, read-out: Activity on T. cruzi (Y strain) blood trypomastigotes EC50
[5] = 24 h, read-out: Activity on T. cruzi (Y strain) blood trypomastigotes pEC50 (converted)

Structure (SMILES) | EC90 ([1]; 2 h) [µM] | EC50 [1, 3] [µM] | EC90 ([1]; 24 h) [µM] | EC50 [1, 4] [µM] | EC50 [1, 5] [µM] | qPCR on blood samples, parasite DNA amplification (T. cruzi satDNA) | qPCR on blood samples, animals that amplified parasite DNA (T. cruzi satDNA) | FICI ([2]; proportion BTZ:BZ 0:5) | Drug concentration (EC50 in fixed-ratio series) ([2]; proportion BTZ:BZ 1:4) | FICI ([2]; proportion BTZ:BZ 1:4) | Drug concentration (EC50 in fixed-ratio series) ([2]; proportion BTZ:BZ 2:3) | FICI ([2]; proportion BTZ:BZ 2:3) | Drug concentration (EC50 in fixed-ratio series) ([2]; proportion BTZ:BZ 3:2) | FICI ([2]; proportion BTZ:BZ 3:2) | Drug concentration (EC50 in fixed-ratio series) ([2]; proportion BTZ:BZ 4:1) | FICI ([2]; proportion BTZ:BZ 4:1) | FICI ([2]; proportion BTZ:BZ 5:0) | CC50 at 24 h (in vitro) [µM] | EC50 (H9C2 mammalian cells) [µM] | also measured
Clc1ccc(CCC(Cn2ccnc2)Sc2c(Cl)cccc2Cl)cc1 (centres unmarked) [BTZ, butoconazole] | > 20 | > 20 | 18.64 ± 0.11 | 13.8 ± 0.7 | 14.1 | negative (three of three animals) | only one animal | 0 | 0.008 | 0.26 | 0.012 | 0.37 | 0.006 | 0.20 | 0.024 | 0.76 | 1 | 36 ± 0.25 | 37.2 | fold less potent than BZ on bloodstream trypomastigotes ([1]; 24 h, EC50 versus BZ): 2.3 fold; mice with negative qPCR in cardiac samples (T. cruzi satDNA; BTZ 184 mg/kg/day as printed): two of five; Drug concentration (EC50 in fixed-ratio series) ([2]; proportion BTZ:BZ 5:0): 0.031; CC50 (H9C2 mammalian cells; rat, 24 h): 36.36 ± 0.25 µM
O=C(Cn1ccnc1[N+](=O)[O-])NCc1ccccc1 [BZ, benznidazole] | > 20 | > 20 | 17.5 ± 0.65 | 5.93 ± 0.15 | 6.03 | parasite DNA was amplified in all animals | only one animal | 1 | 0.138 | 0.10 | 0.219 | 0.15 | 0.402 | 0.28 | 0.738 | 0.51 | 0 | > 200 | > 200 | negative qPCR in cardiac samples (T. cruzi satDNA; BZ 100 mg/kg/day): 100%; Drug concentration (EC50 in fixed-ratio series) ([2]; proportion BTZ:BZ 0:5): 1.445
